Experimental data: patent publication US6646009B2, “N-(aryl)-2-arylethenesulfonamides and therapeutic uses thereof” (Temple University — Of Commonwealth System of Higher …, priority 2001, dated 2003)

Key:
[1] = test system: DU145; assay: GI50 growth inhibition, DU145; format: cell-based
Experimental: (§1) The effect of the N-(aryl)-2-arylethenesulfonamides on normal fibroblasts and on tumor cells was determined by the assay described by Latham et al, Oncogene 12:827-837 (1996). Normal diploid lung human fibroblasts (HFL-1) or tumor cells (prostate, colorectal, breast, glial, pancreatic ovarian or leukemic) were plated in 6-well dishes at a cell density of 1.0×10^5 cells per 35-mm^2 well. The plated cells were treated 24 hours later with various concentrations of N-(aryl)-2-arylethenesulfonamide dissolved in dimethyl sulfoxide (DMSO). The total number of viable cells was determined 96 hours later by trypsinizing the wells and counting the number of viable cells, as determined by trypan blue exclusion, using a hemacytometer. Each compound tested (Exs. 1-17) inhibited cell proliferation when tested at a concentration of 30 micromolar. […] Normal HFL cells were treated with the same compounds under the same conditions of concentration and time.
(§2) A dose response curve was plotted for the tumor growth inhibitory effect of (E)-4-methoxystyryl-N-4-fluorophenyl sulfonamide on the estrogen-unresponsive breast cell line BT-20 (FIG. 1). The GI50 (the concentration of drug resulting in 50% net loss of growth inhibition) was determined as 10 μM. […] The (E)-4-methoxystyryl-N-4-fluorophenyl sulfonamide GI50 for the same compound against the cell lines listed in Table 7 was determined in the same manner.

[2] = test system: DLD-1; assay: GI50 growth inhibition, DLD-1; format: cell-based
Experimental: as §1, §2

[3] = test system: estrogen-unresponsive breast cell line BT-20; assay: GI50 growth inhibition, BT-20; format: cell-based
Experimental: as §1, §2

[4] = test system: H157; assay: GI50 growth inhibition, H157; format: cell-based; details: result in words
Experimental: The effect of the N-(aryl)-2-arylethenesulfonamides on normal fibroblasts and on tumor cells was determined by the assay described by Latham et al, Oncogene 12:827-837 (1996). Normal diploid lung human fibroblasts (HFL-1) or tumor cells (prostate, colorectal, breast, glial, pancreatic ovarian or leukemic) were plated in 6-well dishes at a cell density of 1.0×10^5 cells per 35-mm^2 well. The plated cells were treated 24 hours later with various concentrations of N-(aryl)-2-arylethenesulfonamide dissolved in dimethyl sulfoxide (DMSO). The total number of viable cells was determined 96 hours later by trypsinizing the wells and counting the number of viable cells, as determined by trypan blue exclusion, using a hemacytometer. Each compound tested (Exs. 1-17) inhibited cell proliferation when tested at a concentration of 30 micromolar. […]
as §2, with “1).” for “1). The GI50 (the concentration of drug resulting in 50% net loss of growth inhibition) was determined as 10 μM.”
The GI50 of (E)-4-methoxystyryl-N-3-fluoro-4-methoxyphenyl sulfonamide was determined for the following cell lines: BT20, DU145, H157 and DLD-1.

[5] = test system: PC-3; assay: GI50 growth inhibition, PC-3; format: cell-based; details: Homo sapiens; PC-3, Prostate
Experimental: as §1, §2

[6] = test system: LNCAP; assay: GI50 growth inhibition, LNCAP; format: cell-based; details: Homo sapiens, Prostate
Experimental: as §1, §2

[7] = test system: HCT-116; assay: GI50 growth inhibition, HCT-116; format: cell-based; details: Homo sapiens; HCT-116, Colo-rectal
Experimental: as §1, §2

[8] = test system: COLO-320; assay: GI50 growth inhibition, COLO-320; format: cell-based; details: Homo sapiens; COLO-320, Colo-rectal
Experimental: as §1, §2

[9] = test system: SK-br-3; assay: GI50 growth inhibition, SK-br-3; format: cell-based; details: Homo sapiens; SK-br-3, Breast
Experimental: as §1, §2

[10] = test system: U87; assay: GI50 growth inhibition, U87; format: cell-based; details: Homo sapiens, U-87 MG; U87, Glioblastoma
Experimental: as §1, §2

[11] = test system: MIA-PaCa-2; assay: GI50 growth inhibition, MIA-PaCa-2; format: cell-based; details: Homo sapiens; MIA-PaCa-2, Pancreatic
Experimental: as §1, §2

[12] = test system: SK-ov-3; assay: GI50 growth inhibition, SK-ov-3; format: cell-based; details: Homo sapiens; SK-ov-3, Ovarian
Experimental: as §1, §2

[13] = test system: CEM; assay: GI50 growth inhibition, CEM; format: cell-based; details: Homo sapiens, CCRF-CEM, Leukemic
Experimental: as §1, §2

[14] = test system: normal fibroblast line HFL-1; assay: GI50 growth inhibition, HFL-1; format: cell-based; details: Homo sapiens, HFL1; HFL-1, Normal diploid lung
Experimental: as §1, §2

[15] = test system: BT20 cells; assay: Induction of apoptosis: PARP cleavage Western blot, BT20; format: cell-based; details: 20 μM, 96 hours
From the text: (§3) The caspases and the ICE-family proteases are cysteine proteases which are activated during apoptosis (Patel et al., FASEB 10:587-597, 1996). The cleavage of poly(ADP-ribose) polymerase (PARP), which is a target of caspase-3, apopain, and several other activated proteases, is a widely used and accepted marker for apoptosis (Nicholson et al., Nature 376(6533):37-43, 1995; Lippke et al., J. Biol. Chemistry 271:1825, 1996). For this assay, BT20 cells, an estrogen receptor negative breast carcinoma, and HFL-1 cells, normal lung fibroblasts, were treated with either (E)-4-methoxystyryl-N-4-fluorophenyl sulfonamide at a final concentration of 20 μM or dimethyl sulfoxide (DMSO) for 96 hours. The cells were then lysed in RIPA buffer and 100 μg of total cellular protein from each sample was resolved on a 10% SDS-polyacrylamide gel. The proteins were then Western blotted onto PROTRAN filter paper (S/S) and the filter was then probed with antibody (Boehringer Mannheim) specific for PARP. This antibody recognizes both the 116 kDa full length PARP and the 83 kDa cleaved product. […] The BT20 cells treated with DMSO for the same amount of time also had no activation of the apoptotic pathway.

[16] = test system: HFL-1 cells; assay: Induction of apoptosis: PARP cleavage Western blot, HFL-1; format: cell-based, human; details: 20 μM, 96 hours
From the text: as §3

SMILES | GI50 compared with (E)-4-methoxystyryl-N-4-fluorophenyl sulfonamide ([1]; DU145, result in words) | GI50 compared with (E)-4-methoxystyryl-N-4-fluorophenyl sulfonamide ([2]; DLD-1, result in words) | GI50 compared with (E)-4-methoxystyryl-N-4-fluorophenyl sulfonamide ([3]; BT20, result in words) | GI50 compared with (E)-4-methoxystyryl-N-4-fluorophenyl sulfonamide [4] | GI50 ([1]; Homo sapiens, DU-145, DU145, Prostate) [µM] | GI50 [5] [µM] | GI50 [6] [µM] | GI50 ([2]; Homo sapiens, DLD-1, Colo-rectal) [µM] | GI50 [7] [µM] | GI50 [8] [µM] | GI50 ([3]; Homo sapiens, BT-20 (BT2O), Breast) [µM] | GI50 [9] [µM] | GI50 [10] [µM] | GI50 [11] [µM] | GI50 [12] [µM] | GI50 [13] [µM] | GI50 [14] [µM] | PARP cleavage (83 kDa product, marker for apoptosis) [15] | PARP cleavage (83 kDa product, marker for apoptosis) [16]
COc1ccc(/C=C/S(=O)(=O)Nc2ccc(OC)c(F)c2)cc1 [Example 5, (E)-4-methoxystyryl-N-3-fluoro4-methoxyphenyl sulfonamide] | in essential agreement | in essential agreement | in essential agreement | in essential agreement | – | – | – | – | – | – | – | – | – | – | – | – | – | – | –
COc1ccc(/C=C/S(=O)(=O)Nc2ccc(F)cc2)cc1 [Example 4, (E)-4-methoxystyryl-N-4-fluorophenyl sulfonamide] | – | – | – | – | 10 | 20 | 20 | 15 | 20 | 5 | 10 | 30 | 20 | 7 | 15 | 30 | 50 | presence of the 83 kDa PARP cleavage product | no cleavage of the full length PARP
